# Data taken from patent US20230321067A1, “DOSING REGIMEN COMPRISING 3-(1-OXOISOINDOLIN-2-YL)PIPERIDINE-2,6-DIONE DERIVATIVES” (Novartis AG, priority 2020, published 2023).
# What was measured:
# hERG = hERG (Homo sapiens, UniProt Q12809); assay: In vitro hERG inhibition; format: biochemical
# Procedure: The risk of possible QTc interval prolongation at the starting dose is therefore considered low. QT prolongation may become clinically significant during escalation but are not anticipated to be dose limiting until doses at or above 640 mg. Monitoring and other measures to mitigate potential risk of arrhythmia is addressed in Example 3 below.
# CYP3A [1] = assay: Time-dependent CYP inhibition: CYP3A; format: in vitro ADME; conditions: I-57 concentrations of up to 100 μM
# CYP2D6 = CYP2D6 (Homo sapiens, UniProt P10635); assay: Time-dependent CYP inhibition: CYP2D6; format: in vitro ADME; conditions: I-57 concentrations of up to 100 μM
# Sequence of CYP2D6 (P10635 whole entry): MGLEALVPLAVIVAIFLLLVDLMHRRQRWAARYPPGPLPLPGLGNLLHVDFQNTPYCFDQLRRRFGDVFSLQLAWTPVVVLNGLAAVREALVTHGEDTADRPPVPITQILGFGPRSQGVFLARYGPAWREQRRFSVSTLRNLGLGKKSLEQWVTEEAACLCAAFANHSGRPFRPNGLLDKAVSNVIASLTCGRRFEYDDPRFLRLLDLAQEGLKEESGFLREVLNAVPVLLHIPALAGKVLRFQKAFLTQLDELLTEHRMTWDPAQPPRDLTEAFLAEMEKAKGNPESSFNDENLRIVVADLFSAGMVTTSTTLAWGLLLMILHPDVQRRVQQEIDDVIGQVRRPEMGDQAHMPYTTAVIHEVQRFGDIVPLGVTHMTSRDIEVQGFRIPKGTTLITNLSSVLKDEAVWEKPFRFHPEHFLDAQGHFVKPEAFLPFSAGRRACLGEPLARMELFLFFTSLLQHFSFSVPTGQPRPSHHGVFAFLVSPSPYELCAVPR
# CYP2A6 = CYP2A6 (Homo sapiens, UniProt P11509); assay: CYP inhibition: CYP2A6; format: in vitro ADME; conditions: I-57 concentrations of up to 100 μM
# Sequence of CYP2A6 (P11509 whole entry): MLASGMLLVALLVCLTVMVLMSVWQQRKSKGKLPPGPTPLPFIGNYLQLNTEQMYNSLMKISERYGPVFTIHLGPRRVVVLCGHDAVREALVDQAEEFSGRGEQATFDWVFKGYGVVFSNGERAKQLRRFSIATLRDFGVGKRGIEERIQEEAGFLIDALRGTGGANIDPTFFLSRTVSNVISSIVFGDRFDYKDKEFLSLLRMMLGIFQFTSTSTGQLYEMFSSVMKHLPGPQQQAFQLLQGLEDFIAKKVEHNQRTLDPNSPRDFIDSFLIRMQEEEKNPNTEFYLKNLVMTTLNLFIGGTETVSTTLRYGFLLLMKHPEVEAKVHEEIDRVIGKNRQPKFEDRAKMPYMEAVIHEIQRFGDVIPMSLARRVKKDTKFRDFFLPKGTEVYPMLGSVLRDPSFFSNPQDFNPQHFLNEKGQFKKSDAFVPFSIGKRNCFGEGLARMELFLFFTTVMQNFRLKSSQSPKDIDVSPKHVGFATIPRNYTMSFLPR
# GSPT1 = target: T1, GSPT1 (Homo sapiens, UniProt P15170); assay: GSPT1 degradation in vitro (FIG. 1); format: cell-based
# T1 construct: prolabel (ProLabel enzyme-fragment tag); expressed in transfected cells; host or cells: HEK293T
# T1 sequence (Q96SW2 whole entry partner, the tested form may be a part): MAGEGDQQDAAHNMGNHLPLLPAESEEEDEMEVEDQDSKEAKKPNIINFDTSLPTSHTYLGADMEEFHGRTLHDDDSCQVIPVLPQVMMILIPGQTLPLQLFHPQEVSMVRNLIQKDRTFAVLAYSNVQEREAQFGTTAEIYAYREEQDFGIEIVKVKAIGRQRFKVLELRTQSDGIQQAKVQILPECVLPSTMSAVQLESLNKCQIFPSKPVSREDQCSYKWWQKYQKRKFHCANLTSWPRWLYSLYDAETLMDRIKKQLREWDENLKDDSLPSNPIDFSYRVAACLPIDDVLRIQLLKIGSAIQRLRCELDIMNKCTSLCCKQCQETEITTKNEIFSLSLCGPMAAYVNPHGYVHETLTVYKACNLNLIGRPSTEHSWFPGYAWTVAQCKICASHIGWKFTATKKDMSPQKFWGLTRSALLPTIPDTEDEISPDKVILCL
# T1 sequence (Q16531 whole entry partner, the tested form may be a part): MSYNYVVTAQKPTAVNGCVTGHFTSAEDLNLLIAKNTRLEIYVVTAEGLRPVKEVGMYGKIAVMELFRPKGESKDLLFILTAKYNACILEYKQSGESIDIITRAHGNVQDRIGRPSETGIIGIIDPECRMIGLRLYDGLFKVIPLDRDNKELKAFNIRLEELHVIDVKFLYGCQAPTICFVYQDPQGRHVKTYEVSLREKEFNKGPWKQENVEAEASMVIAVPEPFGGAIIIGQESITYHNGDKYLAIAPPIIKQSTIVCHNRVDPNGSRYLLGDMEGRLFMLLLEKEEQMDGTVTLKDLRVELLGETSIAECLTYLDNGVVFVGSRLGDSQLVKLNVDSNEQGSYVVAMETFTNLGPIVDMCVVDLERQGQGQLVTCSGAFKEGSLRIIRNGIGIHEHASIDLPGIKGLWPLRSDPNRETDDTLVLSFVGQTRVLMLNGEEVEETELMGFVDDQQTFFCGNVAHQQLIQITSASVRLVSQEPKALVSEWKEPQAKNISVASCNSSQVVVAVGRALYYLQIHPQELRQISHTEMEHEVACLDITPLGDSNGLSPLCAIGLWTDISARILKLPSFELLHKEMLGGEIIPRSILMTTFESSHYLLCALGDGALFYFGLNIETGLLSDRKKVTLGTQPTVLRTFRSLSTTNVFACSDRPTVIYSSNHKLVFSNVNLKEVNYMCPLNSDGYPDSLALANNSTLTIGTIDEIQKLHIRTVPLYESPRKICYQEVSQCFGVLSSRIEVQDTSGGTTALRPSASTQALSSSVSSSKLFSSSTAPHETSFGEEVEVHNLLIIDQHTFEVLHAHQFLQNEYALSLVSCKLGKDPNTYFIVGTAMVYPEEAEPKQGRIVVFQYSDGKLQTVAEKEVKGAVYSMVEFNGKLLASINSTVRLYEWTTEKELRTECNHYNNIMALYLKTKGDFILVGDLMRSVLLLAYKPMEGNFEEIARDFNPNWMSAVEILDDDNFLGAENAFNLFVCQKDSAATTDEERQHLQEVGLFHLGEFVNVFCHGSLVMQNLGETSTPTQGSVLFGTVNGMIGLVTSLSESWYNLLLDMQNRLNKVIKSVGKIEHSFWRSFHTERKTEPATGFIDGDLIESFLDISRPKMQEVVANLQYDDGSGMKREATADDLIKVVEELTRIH
# T1 sequence (P15170 whole entry, the tested form may be a part): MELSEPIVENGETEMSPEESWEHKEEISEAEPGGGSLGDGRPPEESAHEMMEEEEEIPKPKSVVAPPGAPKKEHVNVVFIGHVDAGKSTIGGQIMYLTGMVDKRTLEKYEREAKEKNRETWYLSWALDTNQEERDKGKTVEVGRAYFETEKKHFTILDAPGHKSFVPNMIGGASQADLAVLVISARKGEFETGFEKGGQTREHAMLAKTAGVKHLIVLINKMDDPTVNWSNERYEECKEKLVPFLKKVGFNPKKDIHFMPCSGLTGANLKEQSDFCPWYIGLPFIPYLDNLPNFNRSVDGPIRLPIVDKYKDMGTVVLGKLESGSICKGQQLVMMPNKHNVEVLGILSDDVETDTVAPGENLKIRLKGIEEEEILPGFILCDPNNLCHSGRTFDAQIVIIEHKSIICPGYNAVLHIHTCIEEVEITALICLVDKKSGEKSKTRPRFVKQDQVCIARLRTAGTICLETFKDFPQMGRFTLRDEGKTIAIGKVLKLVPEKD
# Excerpt: (§1) Although the specific transcriptional targets of IKZF2 remain to be defined, IKZF2 binds to and represses transcription from the IL-2 promoter region (Baine 2013). […] Finally, an in vitro assay recapitulating hallmarks of T cell dysfunction/exhaustion, by sequential TCR stimulation of isolated primary human T cells, was used to test the hypothesis that […] would rescue the exhausted phenotype and enhance Teff cell activity. […] In addition to IKZF1, other known cereblon substrates including translation termination factor G1 to S phase transition 1 (GSPT1) are not degraded by I-57 (FIG. 1).
# TMEM97 = target: T2, TMEM97 (Homo sapiens, UniProt Q5BJF2); assay: Whole cell proteomic analysis in 293T cells: TMEM97; format: cell-based
# T2 construct: endogenous in cells; host or cells: 293T
# T2 sequence (Q5BJF2 whole entry): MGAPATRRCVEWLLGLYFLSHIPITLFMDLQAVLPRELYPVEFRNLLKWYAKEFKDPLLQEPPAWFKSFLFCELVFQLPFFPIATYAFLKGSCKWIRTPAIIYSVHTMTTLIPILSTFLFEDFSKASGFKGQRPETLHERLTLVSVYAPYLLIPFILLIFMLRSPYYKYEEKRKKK
# Procedure: Other potential degradation targets of I-57 were evaluated in 293T cells using whole cell proteomic analysis. […] Subsequent analyses have confirmed that FIZ1 is degraded by about 50% at a 10 μM concentration of I-57 ([I-57 Investigator's Brochure]). […] FIZ1 is expressed in the neural retina where it transcriptionally represses the differentiation of photoreceptors. FIZ1 is also expressed in non-ocular tissues with unknown function.
# [2] = test system: isolated primary human T cells; assay: In vitro T cell dysfunction/exhaustion assay (sequential TCR stimulation); format: cell-based
# Excerpt: as §1
# CYP2C9 = CYP2C9 (Homo sapiens, UniProt P11712); assay: CYP inhibition: CYP2C9; format: in vitro ADME; conditions: I-57 concentrations of up to 100 μM
# Sequence of CYP2C9 (P11712 whole entry): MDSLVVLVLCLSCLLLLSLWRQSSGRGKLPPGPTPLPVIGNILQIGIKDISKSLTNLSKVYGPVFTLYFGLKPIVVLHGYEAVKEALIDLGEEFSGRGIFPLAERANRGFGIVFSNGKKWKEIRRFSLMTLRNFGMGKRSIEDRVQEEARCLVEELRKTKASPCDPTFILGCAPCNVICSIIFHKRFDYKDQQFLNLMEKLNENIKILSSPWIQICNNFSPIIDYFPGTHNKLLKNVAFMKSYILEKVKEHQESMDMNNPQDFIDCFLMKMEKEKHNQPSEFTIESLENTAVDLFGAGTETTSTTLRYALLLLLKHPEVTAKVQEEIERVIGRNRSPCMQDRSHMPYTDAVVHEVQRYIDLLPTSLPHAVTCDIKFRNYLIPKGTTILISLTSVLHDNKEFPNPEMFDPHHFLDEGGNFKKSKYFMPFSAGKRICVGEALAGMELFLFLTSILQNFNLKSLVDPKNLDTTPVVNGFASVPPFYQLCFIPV
# IKZF2 [3] = assay: Repeated daily oral dose PD in cynomolgus monkey: IKZF2 in FOXP3+ T cells by flow cytometry; format: in vivo
# Procedure: The PK/PD relationship of I-57 was further examined in cynomolgus monkeys after repeated daily oral doses of 0.1 and 3 mg/kg. In this study, a cohort of animals were initially immunized with an antigen-adjuvant mixture (KLH/Squalene). The experiment was designed to assess the effect of I-57 exposure, and the resulting IKZF2 degradation, on immune response during immunization to test the hypothesis that IKZF2 degradation would result in increased proliferation of stimulated T-cells. In the experiment, daily I-57 oral treatment was initiated 5 days after immunization. An immunization booster dose was administered on day 15. I-57 plasma concentration and IKZF2 expression (as determined by flow cytometry) in FOXP3+ T cells from PBMCs were determined (FIG. 9A and FIG. 9B).
# Consistent with previous findings, IKZF2 degradation was detected 24 h after the first dose (at day 6) (FIG. 9A and FIG. 9B). The levels of IKZF2 decreased further upon repeat dosing and reached a steady-state level approximately 72 h after initiation of treatment. This level of degradation was maintained throughout the remainder of the treatment (24 days).
# CYP2B6 = CYP2B6 (Homo sapiens, UniProt P20813); assay: Time-dependent CYP inhibition: CYP2B6; format: in vitro ADME; conditions: I-57 concentrations of up to 100 μM
# Sequence of CYP2B6 (P20813 whole entry): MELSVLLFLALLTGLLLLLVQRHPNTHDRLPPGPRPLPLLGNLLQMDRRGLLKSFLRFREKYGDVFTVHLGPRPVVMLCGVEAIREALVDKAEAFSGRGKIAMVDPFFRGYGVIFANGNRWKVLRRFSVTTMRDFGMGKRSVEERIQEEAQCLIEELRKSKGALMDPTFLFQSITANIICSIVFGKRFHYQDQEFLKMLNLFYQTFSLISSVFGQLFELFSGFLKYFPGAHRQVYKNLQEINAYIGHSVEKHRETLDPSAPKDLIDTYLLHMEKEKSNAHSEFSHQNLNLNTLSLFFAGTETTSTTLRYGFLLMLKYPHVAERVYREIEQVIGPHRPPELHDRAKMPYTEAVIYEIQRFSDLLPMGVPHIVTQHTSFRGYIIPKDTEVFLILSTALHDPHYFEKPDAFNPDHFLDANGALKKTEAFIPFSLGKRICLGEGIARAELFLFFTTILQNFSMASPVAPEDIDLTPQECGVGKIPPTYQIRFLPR
# [4] = In vivo non-clinical PK, dog
# Procedure: (§2) The in vivo non-clinical PK profile of I-57 was investigated in mouse, rat, dog and cynomolgus monkey using I-57 free base. […] After p.o. administration, the absorption of I-57 was rapid with peak blood concentration (Tmax) occurring between 1 and 4 hours. […] In high dose PK and toxicology studies with I-57 the exposures in mouse, rat and monkey increased with dose.
# The binding to plasma protein of I-57 in vitro was moderate in all species, with an observed difference between rodents (73% in mouse, 76% in rat) and non-rodents (52% in dog and monkey, 54% in human). Blood-to-plasma ratios were in the range of 0.7-1.8 (human 1.1-1.3). […] Based on results with non-radiolabeled I-57 in the dog, a significant amount of unchanged I-57 was renally eliminated (˜20% of dose).
# IL2 mRNA = assay: Upregulation of IL2 mRNA in TCR-stimulated Jurkat cells (FIG. 2B); format: cell-based; conditions: increasing concentrations
# Procedure: FIG. 2B is a graph showing the change upregulation of IL2 mRNA in TCR-stimulated Jurkat cells after IKZF2 degradation when cells were treated with increasing concentrations of Compound I-57.
# CYP3A [5] = assay: CYP inhibition: CYP3A; format: in vitro ADME; conditions: I-57 concentrations of up to 100 μM
# [6] = In vivo non-clinical PK profile, all species tested; parameters: species or system mouse, rat, dog and cynomolgus monkey
# Procedure: as §2
# IKZF2 [7] = assay: Single oral dose PD in cynomolgus monkey: IKZF2 expression in T cells from PBMCs by flow cytometry; format: in vivo
# Procedure: The PK/PD relationship of I-57 was examined in cynomolgus monkeys after a single oral dose of 0.01, 0.1 or 1 mg/kg. I-57 plasma concentration and IKZF2 expression (as determined by flow cytometry) in FOXP3+ T cells from PBMCs were determined (FIG. 4 and FIG. 5).
# Decreased (percentage change) IKZF2 positive […] cells, as determined by flow cytometry, were detectable at 4h post dose in the 1 mg/kg and 0.1 mg/kg groups, reaching maximum at 12-24 hrs post-dose and maintaining this maximum for 12-24 hrs.
# [8] = i.v. administration, all species tested, I-57 free base
compound,measurement,setting,value
"O=C1CCC(N2Cc3cc(C4CCN(Cc5ccccc5)CC4)ccc3C2=O)C(=O)N1 (stereo not drawn) [Compound I-57, 3-(5-(1-benzylpiperidin-4-yl)-1-oxoisoindolin-2-yl)piperidine-2,6-dione]",IC50,hERG,7.1 µM
same,time-dependent inhibition of CYP3A,CYP3A [1],no apparent time-dependent inhibition
same,time-dependent inhibition of CYP2D6,CYP2D6,no apparent time-dependent inhibition
same,phototoxic potential,Phototoxic potential,no genotoxic or phototoxic potential
same,inhibition of CYP2A6,CYP2A6,very little and no inhibition
same,degradation of GSPT1,GSPT1,not degraded
same,degradation of TMEM97,TMEM97,degraded
same,IKZF2 degradation,[2],degraded IKZF2 in a dose-dependent manner
same,interferon gamma production by IKZF2 positive cells,[2],concomitant increase
same,inhibition of CYP2C9,CYP2C9,very little and no inhibition
same,IKZF2 degradation,"IKZF2 [3]; 0.1 mg/kg dose level, repeated daily",profound
same,time after initiation of treatment to steady-state level of IKZF2,IKZF2 [3]; repeated daily oral doses,approximately 72 h
same,time after the first dose at which IKZF2 degradation was detected,IKZF2 [3]; repeated daily oral doses of 0.1 and 3 mg/kg,24 h
same,time-dependent inhibition of CYP2B6,CYP2B6,no apparent time-dependent inhibition
same,bioavailability,"[4]; blood, po",91%
same,unchanged I-57 renally eliminated,[4]; non-radiolabeled I-57,~20 % of dose
same,genotoxic potential,Genotoxic potential,no genotoxic or phototoxic potential
same,IL-2 mRNA expression,IL2 mRNA,expressed more IL-2 mRNA in a dose-dependent manner
same,inhibition of CYP3A,CYP3A [5],very little and no inhibition
same,blood clearance (CL),[6]; [8],low to moderate
same,terminal half-life (T½),[6]; [8],moderate
same,volume of distribution (Vss),[6]; [8],moderate to high
same,Tmax,"[6]; mouse, rat, dog, cynomolgus monkey, blood, po, p.o. administration, read-out: peak blood concentration (Tmax)",1 to 4 h
same,duration for which maximum decrease of IKZF2 positive cells was maintained,IKZF2 [7]; single oral dose,12 to 24 h
same,recovery of IKZF2 positive cells,IKZF2 [7]; single oral dose 1 mg/kg,total recovery was not achieved by day 7 post-dose
same,time at which decreased IKZF2 positive cells were detectable,"IKZF2 [7]; single oral dose, 1 mg/kg and 0.1 mg/kg groups, flow cytometry",4 h
same,time to maximum decrease of IKZF2 positive cells,"IKZF2 [7]; single oral dose, post-dose",12 to 24 h
